Results published in patent publication US20020173475A1 (priority 2001, published 2002).

Experiments:
PV 5′ UTR RNA = type: binding, poliovirus
[1] = test system: IRES initiated translation; conditions: cited from earlier work

AALEAKICHQIEQQFGDF [Peptide 772]
binding to PV 5′ UTR RNA relative to wild-type La antigen (PV 5′ UTR RNA): dramatically reduced binding

AALEAKICHQIEYYFGDF [LAP]
inhibition of IRES initiated translation [1]: inhibit this translation

AALEAKICHQIEYYQGDQ [Peptide 771]
binding to PV 5′ UTR RNA relative to wild-type La antigen (PV 5′ UTR RNA): dramatically reduced binding
